For this assay, the target named is T1, Human KDR (Homo sapiens, UniProt P35968).
T1 construct: expressed in transfected cells; host or cells: NIH3T3 cells (mouse fibroblasts)
Put plainly: Inhibition of KDR phosphorylation in human KDR-transfected NIH3T3 cells (ELISA).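 On Selection ratio (KDR phosphorylation IC50 / c-fms phosphorylation IC50): class 2 means ratio of 10 or more and class 3 means 50 or more.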 Particulars: for Selection ratio (KDR phosphorylation IC50 / c-fms phosphorylation IC50): class 0-3; for IC50: human KDR-transfected NIH3T3 cells, VEGF 100 ng/ml, ELISA, read-out: KDR phosphorylation 50% inhibitory concentration (IC50). It is filed as cell-based. An outline of the steps:
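NIH3T3 cells transfected with human KDR, in 0.1% FCS medium, treated with compound 1 hr at 37° C, then stimulated with VEGF 100 ng/ml for 2 min. Lysate KDR phosphorylation measured by anti-phosphotyrosine capture/anti-KDR ELISA (A450); IC50 from inhibition normalized between VEGF-stimulated and unstimulated wells.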

T1 sequence (P35968 20-1356): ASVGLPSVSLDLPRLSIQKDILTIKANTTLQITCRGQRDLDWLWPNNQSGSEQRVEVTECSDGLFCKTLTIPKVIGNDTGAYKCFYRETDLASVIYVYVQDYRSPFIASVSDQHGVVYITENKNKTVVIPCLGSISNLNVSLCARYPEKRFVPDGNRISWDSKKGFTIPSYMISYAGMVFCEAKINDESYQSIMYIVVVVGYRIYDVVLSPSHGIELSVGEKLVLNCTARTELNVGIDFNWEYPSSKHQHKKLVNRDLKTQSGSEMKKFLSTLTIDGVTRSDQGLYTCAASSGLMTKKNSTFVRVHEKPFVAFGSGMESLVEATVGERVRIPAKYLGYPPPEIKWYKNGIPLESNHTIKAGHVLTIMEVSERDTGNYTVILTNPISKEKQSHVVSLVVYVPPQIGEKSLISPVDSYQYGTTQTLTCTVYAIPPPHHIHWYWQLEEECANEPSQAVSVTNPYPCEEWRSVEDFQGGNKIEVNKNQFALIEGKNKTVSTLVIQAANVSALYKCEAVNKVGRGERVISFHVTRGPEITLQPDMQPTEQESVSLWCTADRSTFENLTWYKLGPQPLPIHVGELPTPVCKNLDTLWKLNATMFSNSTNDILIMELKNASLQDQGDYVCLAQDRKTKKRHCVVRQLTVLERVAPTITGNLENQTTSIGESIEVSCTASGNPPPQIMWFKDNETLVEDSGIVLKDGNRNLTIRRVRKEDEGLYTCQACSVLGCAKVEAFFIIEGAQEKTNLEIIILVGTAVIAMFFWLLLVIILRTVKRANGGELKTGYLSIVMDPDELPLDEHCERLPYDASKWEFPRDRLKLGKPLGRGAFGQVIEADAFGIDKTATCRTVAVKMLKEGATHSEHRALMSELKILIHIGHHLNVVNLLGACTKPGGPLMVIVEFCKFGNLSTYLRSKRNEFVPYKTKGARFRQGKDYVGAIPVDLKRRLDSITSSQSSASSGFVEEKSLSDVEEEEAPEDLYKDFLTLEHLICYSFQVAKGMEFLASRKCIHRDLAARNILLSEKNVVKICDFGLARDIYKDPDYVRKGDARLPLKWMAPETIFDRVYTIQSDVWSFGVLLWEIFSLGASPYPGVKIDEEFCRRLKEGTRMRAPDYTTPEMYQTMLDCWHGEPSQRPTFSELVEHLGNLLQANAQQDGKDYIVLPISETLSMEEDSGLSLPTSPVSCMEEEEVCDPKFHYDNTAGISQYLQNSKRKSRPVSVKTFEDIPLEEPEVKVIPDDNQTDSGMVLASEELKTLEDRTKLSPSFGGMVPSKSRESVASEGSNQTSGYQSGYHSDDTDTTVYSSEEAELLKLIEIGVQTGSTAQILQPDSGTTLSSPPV

Take `COc1cc2nccc(Oc3ccc(NC(=O)N[C@H](C)c4ccc(C)cc4)cc3)c2cc1OC` [Example 42, N-{4-[(6,7-Dimethoxy-4-quinolyl)oxy]phenyl}-N′-[(1R)-1-(4-methylphenyl)ethyl]urea]: the “Selection ratio (KDR phosphorylation IC50 / c-fms phosphorylation IC50)” value was 0 (KDR phosphorylation 50% inhibitory concentration [μM]/c-fms phosphorylation 50% inhibitory concentration [μM] was less than 5) and the IC50 came out at 16.6 nM.
The like results for `COc1cc2nccc(Oc3ccc(NC(=O)N[C@H](C)c4cccc(Br)c4)cc3)c2cc1OC` [Example 45, N-[(1R)-1-(3-Bromophenyl)ethyl]-N′-{4-[(6,7-dimethoxy-4-quinolyl)oxy]phenyl}urea] were, in that order, 0 (KDR phosphorylation 50% inhibitory concentration [μM]/c-fms phosphorylation 50% inhibitory concentration [μM] was less than 5) and 2.5 nM.
For `COc1cc2nccc(Oc3ccc(NC(=O)N[C@@H](C)c4ccc(Cl)cc4)cc3)c2cc1OC` [Example 47, N-[(1S)-1-(4-Chlorophenyl)ethyl]-N′-{4-[(6,7-dimethoxy-4-quinolyl)oxy]phenyl}urea] the same measures were 3 (when the value was 50 or more) and 310 nM.
On to `COc1cc2nccc(Oc3ccc(NC(=O)N[C@@H](C)c4ccc(C)cc4)cc3)c2cc1OC` [Example 41, N-{4-[(6,7-Dimethoxy-4-quinolyl)oxy]phenyl}-N′-[(1S)-1-(4-methylphenyl)ethyl]urea], for which the “Selection ratio (KDR phosphorylation IC50 / c-fms phosphorylation IC50)” value was 1 (when the value was 5 or more) and the IC50 is 18.8 nM.
For `COc1cccc([C@@H](C)NC(=O)Nc2ccc(Oc3ccnc4cc(OC)c(OC)cc34)cc2)c1` [Example 50, N-{4-[(6,7-Dimethoxy-4-quinolyl)oxy]phenyl}-N′-[(1R)-1-(3-methoxyphenyl)ethyl]urea], the “Selection ratio (KDR phosphorylation IC50 / c-fms phosphorylation IC50)” value was 0 (KDR phosphorylation 50% inhibitory concentration [μM]/c-fms phosphorylation 50% inhibitory concentration [μM] was less than 5) and the IC50 stood at 28.3 nM.
The like results for `COc1cc2nccc(Oc3ccc(NC(=O)N[C@@H](C)c4cccc(Br)c4)cc3)c2cc1OC` [Example 46, N-[(1S)-1-(3-Bromophenyl)ethyl]-N′-{4-[(6,7-dimethoxy-4-quinolyl)oxy]phenyl}urea] were, in that order, 3 (when the value was 50 or more) and 507 nM.
For `COc1cc2nccc(Oc3ccc(NC(=O)N[C@H](C)c4ccc(F)cc4)cc3)c2cc1OC` [Example 3, N-{4-[(6,7-Dimethoxy-4-quinolyl)oxy]phenyl}-N′-[(1R)-1-(4-fluorophenyl)ethyl]urea] the same measures were 0 (KDR phosphorylation 50% inhibitory concentration [μM]/c-fms phosphorylation 50% inhibitory concentration [μM] was less than 5) and less than 1 nM.
On to `COc1cccc([C@H](C)NC(=O)Nc2ccc(Oc3ccnc4cc(OC)c(OC)cc34)cc2)c1` [Example 49, N-{4-[(6,7-Dimethoxy-4-quinolyl)oxy]phenyl}-N′-[(1S)-1-(3-methoxyphenyl)ethyl]urea], for which the “Selection ratio (KDR phosphorylation IC50 / c-fms phosphorylation IC50)” value is 2 (when the value was 10 or more) and the IC50 was determined as 45.4 nM.
The like results for `COc1cc2nccc(Oc3ccc(NC(=O)N[C@@H](C)c4ccc(F)cc4)cc3)c2cc1OC` [Example 2, N-{4-[(6,7-Dimethoxy-4-quinolyl)oxy]phenyl}-N′-[(1S)-1-(4-fluorophenyl)ethyl]urea] were, in that order, 2 (when the value was 10 or more) and 32.3 nM.
Consider `COc1cc2nccc(Oc3ccc(NC(=O)N[C@H](C)c4ccc([N+](=O)[O-])cc4)cc3)c2cc1OC` [Example 36, N-{4-[(6,7-Dimethoxy-4-quinolyl)oxy]phenyl}-N′-[(1R)-1-(4-nitrophenyl)ethyl]urea], for which the “Selection ratio (KDR phosphorylation IC50 / c-fms phosphorylation IC50)” value was 0 (KDR phosphorylation 50% inhibitory concentration [μM]/c-fms phosphorylation 50% inhibitory concentration [μM] was less than 5) and the IC50 turned out to be 134 nM.
Regarding `COc1cc2nccc(Oc3ccc(NC(=O)N[C@@H](C)c4ccc([N+](=O)[O-])cc4)cc3)c2cc1OC` [Example 35, N-{4-[(6,7-Dimethoxy-4-quinolyl)oxy]phenyl}-N′-[(1S)-1-(4-nitrophenyl)ethyl]urea], the “Selection ratio (KDR phosphorylation IC50 / c-fms phosphorylation IC50)” value is on record as 2 (when the value was 10 or more) and the IC50 was 310 nM.
For `COc1cc2nccc(Oc3ccc(NC(=O)N[C@H](C)c4ccc(Cl)cc4)cc3)c2cc1OC` [Example 48, N-[(1R)-1-(4-Chlorophenyl)ethyl]-N′-{4-[(6,7-dimethoxy-4-quinolyl)oxy]phenyl}urea] the same measures were 0 (KDR phosphorylation 50% inhibitory concentration [μM]/c-fms phosphorylation 50% inhibitory concentration [μM] was less than 5) and 2.7 nM.

For the origin of these results see US7598258B2, “Quinoline derivatives and quinazoline derivatives inhibiting autophosphorylation of macrophage colony stimulating factor receptor” (Kirin Beer Kabushiki Kaisha, priority 2002, dated 2009).
